Measurements from ChEMBL document CHEMBL3804811 (J Med Chem, 2016).
Calls of active or inactive are those of the source. No cut-off for these calls is given here.

Legend:
[1] = Tmax in Harlan nu/nu mouse at 10 mg/kg, po administered as single dose by LC-MS/MS analysis; format: ADME, organism-based; conditions: in vivo
[2] = Clearance in Harlan nu/nu mouse at 10 mg/kg, iv administered as single dose by LC-MS/MS analysis; format: ADME, organism-based; conditions: in vivo
[3] = Half life in Harlan nu/nu mouse at 10 mg/kg, po administered as single dose by LC-MS/MS analysis; format: ADME, organism-based; conditions: in vivo
[4] = target: T1, Tyrosine-protein kinase ZAP-70 (Homo sapiens, UniProt P43403); test: Inhibition of ZAP70 (unknown origin) in presence of gamma33-ATP
T1 sequence (P43403 whole entry): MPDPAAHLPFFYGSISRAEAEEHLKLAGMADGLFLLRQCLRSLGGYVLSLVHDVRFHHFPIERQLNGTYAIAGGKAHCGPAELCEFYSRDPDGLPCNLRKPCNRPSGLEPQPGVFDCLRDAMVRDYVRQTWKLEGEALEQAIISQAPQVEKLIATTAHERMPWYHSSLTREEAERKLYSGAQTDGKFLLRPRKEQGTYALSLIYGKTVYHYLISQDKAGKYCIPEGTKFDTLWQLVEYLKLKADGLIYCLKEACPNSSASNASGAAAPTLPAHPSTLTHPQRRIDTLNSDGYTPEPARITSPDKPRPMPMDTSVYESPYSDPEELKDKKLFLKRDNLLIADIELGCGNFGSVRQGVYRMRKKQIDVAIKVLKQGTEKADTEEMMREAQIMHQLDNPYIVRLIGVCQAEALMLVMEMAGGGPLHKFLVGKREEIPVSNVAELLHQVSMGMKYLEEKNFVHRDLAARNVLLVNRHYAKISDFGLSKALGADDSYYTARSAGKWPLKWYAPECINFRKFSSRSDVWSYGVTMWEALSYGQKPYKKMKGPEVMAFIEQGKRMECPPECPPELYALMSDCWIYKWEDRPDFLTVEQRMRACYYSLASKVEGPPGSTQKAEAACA

[5] = target: Serine/threonine-protein kinase Nek6 (Homo sapiens, UniProt Q9HC98); test: Inhibition of NEK6 (unknown origin) in presence of gamma33-ATP
Chain of Serine/threonine-protein kinase Nek6 (Q9HC98 whole entry): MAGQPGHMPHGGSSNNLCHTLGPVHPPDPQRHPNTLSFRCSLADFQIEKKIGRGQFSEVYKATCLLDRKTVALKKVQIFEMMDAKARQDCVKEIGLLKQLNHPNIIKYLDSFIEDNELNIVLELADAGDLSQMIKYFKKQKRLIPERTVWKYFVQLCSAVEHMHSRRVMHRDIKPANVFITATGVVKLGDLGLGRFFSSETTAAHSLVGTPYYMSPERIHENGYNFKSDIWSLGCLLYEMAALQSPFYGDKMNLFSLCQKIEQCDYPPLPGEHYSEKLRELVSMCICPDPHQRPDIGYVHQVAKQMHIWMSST

[6] = Intrinsic clearance in rat hepatocytes at […] after 10 to 90 mins by LC-MS/MS analysis; format: ADME, cell-based, Hepatocyte; conditions: read-out: CLH
[7] = Clearance in Sprague-Dawley rat at 10 mg/kg, iv administered as single dose by LC-MS/MS analysis; format: ADME, organism-based; conditions: in vivo
[8] = Antiproliferative activity against human KARPAS299 cells incubated for 72 hrs by cell titer-glo assay; conditions: KARPAS-299, 72 h
[9] = Apparent permeability from apical to basolateral side in human Caco2 cells at 2.5 mg/ml after 2 hrs by reversed-phase HPLC method; format: ADME, cell-based; conditions: Caco-2
[10] = Half life in Harlan nu/nu mouse at 10 mg/kg, iv administered as single dose by LC-MS/MS analysis; format: ADME, organism-based; conditions: in vivo
[11] = Drug uptake in Harlan nu/nu mouse brain at 240 mg/kg, po administered per day for 2 weeks measured 6 hrs post last dose by LC-MS/MS analysis; format: ADME, organism-based; conditions: read-out: Drug uptake
[12] = Antiproliferative activity against human SR786 cells expressing ALK protein incubated for 72 hrs by cell titer-glo assay; format: functional, cell-based; conditions: SR-786, 72 h
[13] = system: NCI-H2228; conditions: Homo sapiens
Description: Antitumor activity against human NCI-H2228 cells xenografted in athymic nu/nu mouse assessed as tumor growth inhibition at 30 to 60 mg/kg, po bid administered for 10 days

[14] = Antiproliferative activity against human MV411 cells incubated for 72 hrs by cell titer-glo assay; format: functional, cell-based; conditions: MV4-11, 72 h
[15] = target: Serine/threonine-protein kinase NIM1 (Homo sapiens, UniProt Q8IY84); test: Inhibition of NIM1 (unknown origin) in presence of gamma33-ATP
Chain of Serine/threonine-protein kinase NIM1 (Q8IY84 whole entry): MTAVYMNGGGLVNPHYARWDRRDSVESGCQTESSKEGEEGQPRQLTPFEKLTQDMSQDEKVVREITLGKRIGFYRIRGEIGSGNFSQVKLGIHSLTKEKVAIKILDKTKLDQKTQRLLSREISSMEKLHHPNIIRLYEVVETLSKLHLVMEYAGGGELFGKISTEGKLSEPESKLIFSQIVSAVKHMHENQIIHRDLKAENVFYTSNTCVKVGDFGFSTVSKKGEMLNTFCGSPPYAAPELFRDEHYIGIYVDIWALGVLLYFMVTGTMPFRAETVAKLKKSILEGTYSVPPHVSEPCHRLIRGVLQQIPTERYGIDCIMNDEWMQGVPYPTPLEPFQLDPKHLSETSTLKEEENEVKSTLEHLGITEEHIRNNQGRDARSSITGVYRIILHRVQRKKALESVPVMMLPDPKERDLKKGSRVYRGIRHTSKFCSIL

[16] = system: NCI-H2228; test: Antiproliferative activity against human NCI-H2228 cells expressing ALK protein incubated for 72 hrs by cell titer-glo assay; conditions: NCI-H2228, 72 h
[17] = Cmax in Sprague-Dawley rat at 10 mg/kg, iv administered as single dose by LC-MS/MS analysis; format: ADME, organism-based; design: dose 10 mg/kg, route intravenous; conditions: in vivo
[18] = target: Vascular endothelial growth factor receptor 2 (Homo sapiens, UniProt P35968); test: Inhibition of VEGFR2 (unknown origin) in presence of gamma33-ATP
Chain of Vascular endothelial growth factor receptor 2 (P35968 whole entry): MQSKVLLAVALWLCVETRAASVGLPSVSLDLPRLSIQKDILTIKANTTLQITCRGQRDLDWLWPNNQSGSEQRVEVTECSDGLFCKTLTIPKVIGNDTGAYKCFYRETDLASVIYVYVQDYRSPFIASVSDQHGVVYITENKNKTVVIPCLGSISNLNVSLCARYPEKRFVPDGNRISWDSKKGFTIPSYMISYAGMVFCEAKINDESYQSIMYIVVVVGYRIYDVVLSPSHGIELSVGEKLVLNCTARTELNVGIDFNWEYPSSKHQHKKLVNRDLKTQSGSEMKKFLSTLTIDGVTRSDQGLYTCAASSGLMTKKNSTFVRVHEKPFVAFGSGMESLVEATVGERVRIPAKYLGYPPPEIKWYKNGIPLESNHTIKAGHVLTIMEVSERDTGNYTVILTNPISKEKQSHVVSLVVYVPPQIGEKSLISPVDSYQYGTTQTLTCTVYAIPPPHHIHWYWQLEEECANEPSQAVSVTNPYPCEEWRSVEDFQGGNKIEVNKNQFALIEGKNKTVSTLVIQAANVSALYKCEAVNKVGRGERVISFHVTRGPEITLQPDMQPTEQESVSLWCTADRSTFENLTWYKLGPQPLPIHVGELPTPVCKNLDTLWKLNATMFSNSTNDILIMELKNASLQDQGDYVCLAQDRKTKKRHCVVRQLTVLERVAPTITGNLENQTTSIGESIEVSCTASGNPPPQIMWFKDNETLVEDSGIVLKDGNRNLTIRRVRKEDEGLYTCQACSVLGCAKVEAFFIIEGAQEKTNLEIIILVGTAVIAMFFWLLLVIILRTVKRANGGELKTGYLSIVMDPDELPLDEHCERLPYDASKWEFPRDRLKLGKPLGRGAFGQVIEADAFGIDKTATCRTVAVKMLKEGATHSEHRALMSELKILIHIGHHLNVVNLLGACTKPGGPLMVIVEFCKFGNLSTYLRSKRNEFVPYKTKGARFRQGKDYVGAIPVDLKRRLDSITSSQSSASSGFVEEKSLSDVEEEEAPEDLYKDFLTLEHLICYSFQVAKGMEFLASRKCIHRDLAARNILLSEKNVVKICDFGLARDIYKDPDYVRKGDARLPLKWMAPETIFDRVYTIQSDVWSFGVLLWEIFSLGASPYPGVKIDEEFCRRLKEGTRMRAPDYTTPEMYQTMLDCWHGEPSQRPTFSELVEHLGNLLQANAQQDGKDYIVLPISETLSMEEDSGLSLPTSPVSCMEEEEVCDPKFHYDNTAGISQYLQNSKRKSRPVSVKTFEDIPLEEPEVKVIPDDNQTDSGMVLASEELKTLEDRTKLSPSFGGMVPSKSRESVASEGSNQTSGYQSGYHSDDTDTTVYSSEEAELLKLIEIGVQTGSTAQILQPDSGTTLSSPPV

[19] = AUC (infinity) in Harlan nu/nu mouse at 10 mg/kg, po administered as single dose by LC-MS/MS analysis; format: ADME, organism-based; design: dose 10 mg/kg, route oral, time infinity; conditions: in vivo
[20] = AUC (infinity) in Beagle dog at 10 mg/kg, iv administered as single dose by LC-MS/MS analysis; format: ADME, organism-based, Canis lupus familiaris; design: dose 10 mg/kg, route intravenous, time infinity; conditions: in vivo
[21] = Clearance in Beagle dog at 10 mg/kg, iv administered as single dose by LC-MS/MS analysis; format: ADME, organism-based, Canis lupus familiaris; conditions: in vivo
[22] = Tmax in Sprague-Dawley rat at 10 mg/kg, po administered as single dose by LC-MS/MS analysis; format: ADME, organism-based; conditions: in vivo
[23] = system: Mus musculus; test: Toxicity in SCID mouse xenografted with human KARPAS299 cells assessed as body weight loss at 30 to 60 mg/kg, po bid administered for 10 days; format: organism-based, KARPAS-299; conditions: in vivo, 240 h
[24] = AUC (infinity) in Harlan nu/nu mouse at 10 mg/kg, iv administered as single dose by LC-MS/MS analysis; format: ADME, organism-based; design: dose 10 mg/kg, time infinity, route intravenous; conditions: in vivo
[25] = Cmax in Sprague-Dawley rat at 10 mg/kg, po administered as single dose by LC-MS/MS analysis; format: ADME, organism-based; design: dose 10 mg/kg, route oral; conditions: in vivo
[26] = Intrinsic clearance in human liver microsomes at […] preincubated for 5 mins followed by NADPH addition measured after 5 to 30 mins by LC-MS/MS analysis; format: ADME; conditions: read-out: CLH
[27] = AUC (infinity) in Beagle dog at 10 mg/kg, po administered as single dose by LC-MS/MS analysis; format: ADME, organism-based, Canis lupus familiaris; design: dose 10 mg/kg, time infinity, route oral; conditions: in vivo
[28] = Half life in Sprague-Dawley rat at 10 mg/kg, po administered as single dose by LC-MS/MS analysis; format: ADME, organism-based; conditions: in vivo
[29] = target: T2, 3-phosphoinositide-dependent protein kinase 1 (Homo sapiens, UniProt O15530); test: Inhibition of PDK1 (unknown origin) in presence of gamma33-ATP
T2 sequence (O15530 whole entry): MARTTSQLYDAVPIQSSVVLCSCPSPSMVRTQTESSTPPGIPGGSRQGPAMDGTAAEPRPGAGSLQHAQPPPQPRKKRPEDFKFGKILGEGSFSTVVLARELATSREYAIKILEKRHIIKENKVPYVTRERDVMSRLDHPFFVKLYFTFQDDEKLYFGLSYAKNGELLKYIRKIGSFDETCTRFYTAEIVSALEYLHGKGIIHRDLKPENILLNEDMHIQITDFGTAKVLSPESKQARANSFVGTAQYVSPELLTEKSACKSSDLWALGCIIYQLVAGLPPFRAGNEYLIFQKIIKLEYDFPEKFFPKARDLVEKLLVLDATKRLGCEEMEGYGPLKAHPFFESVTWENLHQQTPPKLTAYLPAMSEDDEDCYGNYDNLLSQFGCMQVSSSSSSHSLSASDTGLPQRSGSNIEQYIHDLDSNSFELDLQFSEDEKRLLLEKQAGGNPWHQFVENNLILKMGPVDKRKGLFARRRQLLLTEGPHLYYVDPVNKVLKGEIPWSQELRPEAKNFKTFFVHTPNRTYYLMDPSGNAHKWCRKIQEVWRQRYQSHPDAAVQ

CN1CCN(c2ccc(C(=O)Nc3n[nH]c4ccc(Cc5cc(F)cc(F)c5)cc34)c(NC3CCOCC3)c2)CC1 [ENTRECTINIB] gave a Tmax [1] of 2.5 h, a clearance [2] of 13.5 mL/min/kg and a half-life [3] of 2.94 h. The IC50 [4] was > 10000 nM, the IC50 [5] was > 10000 nM and the CLint scaled [6] was 87 mL/min/kg. The clearance [7] was 20.8 mL/min/kg, the IC50 [8] was 31 nM and the Papp A→B at 2 h, 2.5 mg/ml [9] was 2.4 ×10⁻⁶ cm/s. It also gave a half-life [10] of 3.59 h, a concentration at 6 h [11] of 1940 nM and an IC50 [12] of 81 nM. For the same molecule, the TGI [13] was “Active”, the IC50 [14] was 81 nM and the IC50 [15] was > 10000 nM. The IC50 [16] was 68 nM, the Cmax [17] was 11000 nM and the IC50 [18] was > 1000 nM. It also gave an AUC(0-inf) [19] of 17.4 µM·h, an AUC(0-inf) [20] of 17.6 µM·h and a clearance [21] of 17.5 mL/min/kg. For the same molecule, the Tmax [22] was 3.08 h, the Activity [23] was “Non-toxic” and the AUC(0-inf) [24] was 19.6 µM·h. For the same molecule, the Cmax [25] was 500 nM, the CLint scaled [26] was 33 mL/min/kg and the AUC(0-inf) [27] was 5.7 µM·h. The half-life [28] was 3.8 h and the IC50 [29] was > 10000 nM.
